The subject of assay [1] is C12-GM1 transport to the TGN. The assay can be described thus: Brefeldin effect on C12-GM1 transport. The format is cell-based.
For assay [2] the following is noted: Orskov et al., 1993; cited from earlier work.

For `C[C@H]1CCC/C=C/[C@@H]2C[C@H](O)C[C@H]2[C@H](O)/C=C/C(=O)O1` [Brefeldin-1], the “effect on C12-GM1 transport to the TGN” value in assay [1] is listed as “inhibits C12-GM1 transport to the TGN”.

Take “GLP1(7-36)amide: secreted form of GLP1 in which the carboxylic acid of Arg at position 36 has been amidated”: the potency in vivo entry in assay [2] is “equally potent”.

For “GLP1(7-37): secreted form of GLP1 that contains a C-terminal Gly residue”, the potency in vivo entry in assay [2] is given as “equally potent”.

The values are drawn from patent US10806793B2, “Mucosal delivery of therapeutic molecules, proteins, or particles coupled to ceramide lipids” (Children's Medical Center Corporation, priority 2008, dated 2020).
